From patent US20090270363A1, “2-Aryl- and 2-Heteroarylthiazolyl Compounds, Methods for Their Preparation and Use Thereof” (Wyeth, priority 2008, published 2009)

Assays:
[1] = tested on: securin "knock out" cells F3 (Securin-/-); assay: Growth inhibition (sulforhodamine B, 5 days) of securin knock out cells F3; type: cell-based; settings: for IC50: 120 h, securin knock out F3 cells, 5 days, SRB; for Selectivity Ratio F3: IC50 HCT116 / IC50 securin KO F3
Procedure: (§1) IC50 analysis was performed for selected fused bicyclic 2-aryl or 2-heteroarylthiazolyl compounds that were tested on HCT116 cells and Securin “knock out” cell lines.
(§2) Cell Culture—HCT116 and securin “knock out” cells. HCT116 and securin “knock out” cells (D8 and F3) were grown in RPMI+5% fetal bovine serum and gentamycin. They were maintained in a humidified 37° C. incubator with 5% CO2. Since the securin “knock out” cells have active chromosomal instability, cells were used at a low passage number of 2-13 passages. At or before passage 13 a new vial of cells was thawed and used for the screen. Cell seeding—HCT116 cells and securin “knock out” cells were trypsinized and suspended in RPMI+5% FBS at a density of 27,000 cells/mL. HCT116 and securin “knock out” cells were seeded separately in wells of a 96-well plate (Falcon Cat # 35-3872) at a cell density of 4000 cells per well. Cells were seeded in 150 μL of RPMI media containing 5% FBS and gentamycin. Cell seeding was performed under aseptic conditions. Cells were allowed to attach and grow overnight in a humidified 37° C. incubator.
(§3) Compound Dilution and Dispensation. A series of stock solutions, 10 mg/mL of fused bicyclic 2-aryl- or 2-heteroarylthiazolyl compounds to be tested, were brought to room temperature. The compounds were diluted 1:50 in RPMI+5% FBS (Highest concentration 200 μg/mL). The compounds were then serially diluted 1:3 across a deep-well titration plate resulting in final concentrations in the plate of 200, 66.7, 22.2, 7.4, 2.4, 0.8, 0.27, 0.091, 0.03, 0.01, and 0.0034 μg/mL with one well left without a compound. 50 μL of this dilution series was added to the 150 μL of cells to result in a final concentration of compound in with the cells of 50, 16.6, 5.5, 1.8, 0.6, 0.2, 0.068, 0.023, 0.0076, 0.0025, and 0.00084 μg/mL. The dilution and addition of compounds to the plates is performed using a Multimek 96 Robot (Beckman Coulter).
(§4) Incubation and analysis. After dosing, the cells in the 96 well plates were returned to the humidified 37° C. incubator. The compounds remained on the cells for 5 days. After 5 days, the cells were fixed to the plates with the addition of 50 μL of 50% (vol/vol) Trichloro Acetic Acid ([…]). The cells were fixed at 4° C. for 1 hour. The plates were washed 5 times in distilled water and allowed to dry. The cells were stained with 0.4% sulforhodamine B (Sigma) in 1% acetic acid. The cells were stained for 15 minutes at room temperature. The plates were then washed 3 times in 1% acetic acid. The plates were dried and the dye was solubilized in 10 mM Tris at pH 8.0. The plates were read on the Absorbence 560 setting on a Victor^2 V Model 1420 Multilabel HTS counter (Perkin Elmer).
(§5) Analysis of Results—IC50 data. Absorbence data was read off of the Victor and was converted to a percentage of the control (untreated) values. IC50 values were graphed and the point at which a 50% inhibition of the control level was determined. […] If the model was not able to determine an IC50, the IC50 was assigned to the lowest concentration that gives a 50% or greater decrease in absorbence compared to control levels. If the calculated IC50 value for a cell line exceeds the top concentration for the assay (typically 50 μg/mL), the assay was scored as >50.
(§6) Selectivity Ratio. The Selectivity Ratio is the ratio of IC50s between the parent cell line and the knock out cell line and is always a positive number and is typically an integer.

[2] = tested on: securin "knock out" cells D8 (Securin-/-); assay: Growth inhibition (sulforhodamine B, 5 days) of securin knock out cells D8; type: cell-based; settings: for IC50: 120 h, securin knock out D8 cells, 5 days, SRB; for Selectivity Ratio D8: IC50 HCT116 / IC50 securin KO D8
Procedure: as §1, §2, §3, §4, §5, §6

[3] = tested on: Xenografts of a Human Breast Carcinoma Cell Line (MDA-MB-361); assay: Tumor xenograft study versus Herceptin (Table 2); type: in vivo
Procedure: (§7) Selected fused bicyclic 2-aryl- or 2-heteroarylthiazolyl compounds of formula I were tested for their activity in a securin parental cell line (HCT116 FB) and a securin knockout (KO) cell line. […] The in-vivo activity of selected fused bicyclic 2-aryl- or 2-heteroarylthiazolyl compounds of formula I was studied in cells growing as xenografts in athymic (nude) mice. The effect of Examples 164, 166 and 167 was studied in xenografts of a human breast carcinoma cell line (MDA-MB-361).
(§8) In-vivo Activity in Tumor Xenografts. […] The fused bicyclic 2-arylthiazolyl compounds were formulated using 0.5% Methocel™ (methylcellulose) and 0.4% Tween 80™ (polysorbate-80 and oleic acid) and administered daily orally (PO), by gavage or by syringe. Tumor mass [(length×width^2)/2] was determined every 7 days. Inhibition of tumor growth was calculated relative to conventional (vehicle treated) controls.

[4] = tested on: Xenografts of a Human Breast Carcinoma Cell Line (MDA-MB-361); assay: Tumor xenograft study versus Vincristine (Table 3); type: in vivo; settings: days 2 through 21; for S/T = # of Survivors/# of Treated on Day +36: * = sacrificed earlier due to tumor size
Procedure: as §7, §8
The effectiveness of Examples 164, 166 and 167 versus Vincristine at controlling tumor growth was studied and the results are summarized in Table 3 and FIG. 2.

[5] = tested on: HCT116 cells (Securin+/+, securin parental, HCT116 FB); assay: Growth inhibition (sulforhodamine B, 5 days) of securin parental cells; type: cell-based; settings: Homo sapiens, HCT-116, 120 h, SRB
Procedure: as §1, §2, §3, §4, §5, §6

[6] = 25 mg/kg/dose IP, days 1, 3, 5 ... 19
[7] = 25 mg/kg/dose PO, days 1 through 20
[8] = 20 mg/kg/dose PO, days 1 through 20

CN(C)c1ccc(-c2nc3c(s2)[C@H](O)CCC3)cc1 [Example 164, (7R)-2-[4-(dimethylamino)phenyl]-4,5,6,7-tetrahydro-1,3-benzothiazol-7-ol]
IC50 [1]: 1.3 µM | Selectivity Ratio F3 [1]: 78 | selectivity ratios (IC50 HCT116 FB/IC50 securin KO) [2]: high selectivity ratios | IC50 [2]: 0.81 µM | Selectivity Ratio D8 [2]: 124 | % T/C Day 7 [3, 6]: 64% | % T/C Day 14 [3, 6]: 101% | % T/C Day 21 [3, 6]: 74% | Relative Tumor Growth Day 7 [3, 6]: 1.23 | Relative Tumor Growth Day 14 [3, 6]: 3.23 | Relative Tumor Growth Day 21 [3, 6]: 8.04 | S/T = # of Survivors/# of Treated on Day +21 [3, 6]: 4/5 | % T/C Day 7 [3, 7]: 81% | % T/C Day 14 [3, 7]: 115% | % T/C Day 21 [3, 7]: 117% | Relative Tumor Growth Day 7 [3, 7]: 1.57 | Relative Tumor Growth Day 14 [3, 7]: 3.68 | Relative Tumor Growth Day 21 [3, 7]: 12.27 | S/T = # of Survivors/# of Treated on Day +21 [3, 7]: 5/5 | % T/C Day 8 ([4]; 25 mg/kg/dose PO): 41% | % T/C Day 15 ([4]; 25 mg/kg/dose PO): 37% | % T/C Day 22 ([4]; 25 mg/kg/dose PO): 45% | Relative Tumor Growth Day 8 ([4]; 25 mg/kg/dose PO): 2.17 | Relative Tumor Growth Day 15 ([4]; 25 mg/kg/dose PO): 4.64 | Relative Tumor Growth Day 22 ([4]; 25 mg/kg/dose PO): 10.02 | Relative Tumor Growth Day 29 ([4]; 25 mg/kg/dose PO): 15.52 | % T/C Day 8 ([4]; 50 mg/kg/dose PO): 45% | Relative Tumor Growth Day 8 ([4]; 50 mg/kg/dose PO): 2.37 | Relative Tumor Growth Day 15 ([4]; 50 mg/kg/dose PO): Toxic | S/T = # of Survivors/# of Treated on Day +36 ([4]; 50 mg/kg/dose PO): 0/5 | IC50 [5]: 101 µM

COC(=O)c1cc(N(C)C)ccc1-c1nc2c(s1)[C@H](O)CCC2 [Example 165, methyl 5-(dimethylamino)-2-[(7R)-7-hydroxy-4,5,6,7-tetrahydro-1,3-benzothiazol-2-yl]benzoate]
IC50 [1]: 0.74 µM | Selectivity Ratio F3 [1]: 136 | IC50 [2]: 0.29 µM | Selectivity Ratio D8 [2]: 348 | IC50 [5]: 100 µM

CN(C)c1ccc(-c2nc3c(s2)C(O)CCC3)cc1 (centres unmarked) [Example 166, 2-[4-(dimethylamino)phenyl]-4,5,6,7-tetrahydro-1,3-benzothiazol-7-ol]
IC50 [1]: 3.5 µM | Selectivity Ratio F3 [1]: 15 | IC50 [2]: 1.7 µM | Selectivity Ratio D8 [2]: 30 | % T/C Day 7 [3, 8]: 69% | % T/C Day 14 [3, 8]: 126% | % T/C Day 21 [3, 8]: 102% | Relative Tumor Growth Day 7 [3, 8]: 1.33 | Relative Tumor Growth Day 14 [3, 8]: 4.05 | Relative Tumor Growth Day 21 [3, 8]: 10.76 | S/T = # of Survivors/# of Treated on Day +21 [3, 8]: 10/10 | % T/C Day 7 [3, 6]: 80% | % T/C Day 14 [3, 6]: 93% | % T/C Day 21 [3, 6]: 92% | Relative Tumor Growth Day 7 [3, 6]: 1.55 | Relative Tumor Growth Day 14 [3, 6]: 3.00 | Relative Tumor Growth Day 21 [3, 6]: 9.63 | S/T = # of Survivors/# of Treated on Day +21 [3, 6]: 8/10 | % T/C Day 8 ([4]; 10 mg/kg/dose PO): 60% | % T/C Day 15 ([4]; 10 mg/kg/dose PO): 60% | % T/C Day 22 ([4]; 10 mg/kg/dose PO): 100% | Relative Tumor Growth Day 8 ([4]; 10 mg/kg/dose PO): 3.16 | Relative Tumor Growth Day 15 ([4]; 10 mg/kg/dose PO): 7.40 | Relative Tumor Growth Day 22 ([4]; 10 mg/kg/dose PO): 22.01 | % T/C Day 8 ([4]; 30 mg/kg/dose PO): 55% | % T/C Day 15 ([4]; 30 mg/kg/dose PO): 59% | % T/C Day 22 ([4]; 30 mg/kg/dose PO): 98% | Relative Tumor Growth Day 8 ([4]; 30 mg/kg/dose PO): 2.87 | Relative Tumor Growth Day 15 ([4]; 30 mg/kg/dose PO): 7.34 | Relative Tumor Growth Day 22 ([4]; 30 mg/kg/dose PO): 21.48 | % T/C Day 8 ([4]; 40 mg/kg/dose PO): 33% | % T/C Day 15 ([4]; 40 mg/kg/dose PO): 35% | % T/C Day 22 ([4]; 40 mg/kg/dose PO): 53% | Relative Tumor Growth Day 8 ([4]; 40 mg/kg/dose PO): 1.72 | Relative Tumor Growth Day 15 ([4]; 40 mg/kg/dose PO): 4.29 | Relative Tumor Growth Day 22 ([4]; 40 mg/kg/dose PO): 11.74 | Relative Tumor Growth Day 29 ([4]; 40 mg/kg/dose PO): 7.65 | % T/C Day 8 ([4]; 50 mg/kg/dose PO): 58% | % T/C Day 15 ([4]; 50 mg/kg/dose PO): 62% | Relative Tumor Growth Day 8 ([4]; 50 mg/kg/dose PO): 3.04 | Relative Tumor Growth Day 15 ([4]; 50 mg/kg/dose PO): 7.67 | Relative Tumor Growth Day 22 ([4]; 50 mg/kg/dose PO): Toxic | S/T = # of Survivors/# of Treated on Day +36 ([4]; 50 mg/kg/dose PO): 0/5 | IC50 [5]: 52.5 µM

CN(C)c1ccc(-c2nc3c(s2)[C@@H](O)CCC3)cc1 [Example 167, (7S)-2-[4-(dimethylamino)phenyl]-4,5,6,7-tetrahydro-1,3-benzothiazol-7-ol]
IC50 [1]: 70.7 µM | Selectivity Ratio F3 [1]: 1 | IC50 [2]: 60 µM | Selectivity Ratio D8 [2]: 2 | % T/C Day 7 [3, 8]: 46% | % T/C Day 14 [3, 8]: 61% | % T/C Day 21 [3, 8]: 61% | Relative Tumor Growth Day 7 [3, 8]: 0.89 | Relative Tumor Growth Day 14 [3, 8]: 1.96 | Relative Tumor Growth Day 21 [3, 8]: 6.39 | S/T = # of Survivors/# of Treated on Day +21 [3, 8]: 5/5 | % T/C Day 8 ([4]; 25 mg/kg/dose PO): 61% | % T/C Day 15 ([4]; 25 mg/kg/dose PO): 68% | % T/C Day 22 ([4]; 25 mg/kg/dose PO): 113% | Relative Tumor Growth Day 8 ([4]; 25 mg/kg/dose PO): 3.18 | Relative Tumor Growth Day 15 ([4]; 25 mg/kg/dose PO): 8.38 | Relative Tumor Growth Day 22 ([4]; 25 mg/kg/dose PO): 24.80 | % T/C Day 8 ([4]; 50 mg/kg/dose PO): 50% | % T/C Day 15 ([4]; 50 mg/kg/dose PO): 62% | % T/C Day 22 ([4]; 50 mg/kg/dose PO): 71% | Relative Tumor Growth Day 8 ([4]; 50 mg/kg/dose PO): 2.62 | Relative Tumor Growth Day 15 ([4]; 50 mg/kg/dose PO): 7.61 | Relative Tumor Growth Day 22 ([4]; 50 mg/kg/dose PO): 15.56 | IC50 [5]: 100 µM
